# Experimental data reported in patent US9409884B2 (Rigel Pharmaceuticals, Inc., priority 2012, dated 2016).
# Biological target: AMPK
# Test: AMPK activation, enzyme-linked immunosorbent assay
# Assay type: biochemical
# Conditions: Table 14, compounds of Table 7
# Method in brief: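 Read-out: ELISA, used to detect compound-driven activation of AMPK.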
row,SMILES,EC50 [nM]
1,"COc1ccc(C(=O)C2CCN(C(=O)c3ccc(C(=O)NC4CCN(Cc5ccc(OC(F)(F)F)cc5)C[C@H]4F)cn3)CC2)cc1 (stereo partly drawn) [Compound 7-33, (3,4-trans)-3-fluoro-4-(6-(4-(4-methoxybenzoyl)piperidine-1-carbonyl)nicotinamido)-1-(4-(trifluoromethoxy)benzyl) piperidinium]",< 1000
2,"COc1ccc(C(=O)C2CCN(C(=O)c3ccc(C(=O)NC4CCN(Cc5cccc(C(F)(F)F)c5)C[C@@H]4F)cn3)CC2)cc1 (stereo partly drawn) [Compound 7-34, N-((3,4-trans)-3-fluoro-1-(3-(trifluoromethyl)benzyl)piperidin-4-yl)-6-(4-(4-methoxybenzoyl)piperidine-1-carbonyl)nicotinamide]",< 1000
3,"COc1ccc(C(=O)C2CCN(C(=O)c3ccc(C(=O)NC4CCN(Cc5ccc(F)c(C)c5)C[C@H]4F)cn3)CC2)cc1 (stereo partly drawn) [Compound 7-37, N-((3,4-trans)-3-fluoro-1-(4-fluoro-3-methylbenzyl)piperidin-4-yl)-6-(4-(4-methoxybenzoyl)piperidine-1-carbonyl)nicotinamide]",< 1000
4,"Cn1cnc2cc(OC3CCN(C(=O)c4ccc(C(=O)NC5CCN(Cc6ccc(C#N)cc6)CC5)cn4)CC3)ccc21 [Compound 7-38, N-(1-(4-cyanobenzyl)piperidin-4-yl)-6-(4-(1-methyl-1H-benzo[d]imidazol-5-yloxy)piperidine-1-carbonyl)nicotinamide]",1000 to 10000
5,"COc1ccc(CN2CCC(NC(=O)c3ccc(C(=O)N4CCC(Oc5ccc6c(c5)ncn6C)CC4)nc3)CC2)cc1 [Compound 7-40, N-(1-(4-methoxybenzyl)piperidin-4-yl)-6-(4-(1-methyl-1H-benzo[d]imidazol-5-yloxy)piperidine-1-carbonyl)nicotinamide]",1000 to 10000
6,"COc1ccc(C(=O)C2CCN(C(=O)c3ccc(C(=O)NC4CCN(Cc5ccc(-n6cccn6)cc5)C[C@H]4F)cn3)CC2)cc1 (stereo partly drawn) [Compound 7-41, N-((3,4-trans)-1-(4-(1H-pyrazol-1-yl)benzyl)-3-fluoropiperidin-4-yl)-6-(4-(4-methoxybenzoyl)piperidine-1-carbonyl)nicotinamide]",< 1000
7,"COc1ccc(C(=O)C2CCN(C(=O)c3ccc(C(=O)NC4CCN(Cc5ccc(-n6ccnc6)cc5)C[C@H]4F)cn3)CC2)cc1 (stereo partly drawn) [Compound 7-42, N-((3,4-trans)-1-(4-(1H-imidazol-1-yl)benzyl)-3-fluoropiperidin-4-yl)-6-(4-(4-methoxybenzoyl)piperidine-1-carbonyl)nicotinamide]",1000 to 10000
8,"COc1ccc(C(=O)C2CCN(C(=O)c3ccc(C(=O)NC4CCN(Cc5ccc(F)c(OC)c5)C[C@H]4F)cn3)CC2)cc1 (stereo partly drawn) [Compound 7-43, N-((3,4-trans)-3-fluoro-1-(4-fluoro-3-methoxybenzyl)piperidin-4-yl)-6-(4-(4-methoxybenzoyl)piperidine-1-carbonyl)nicotinamide]",< 1000
9,"COc1ccc(C(=O)C2CCN(C(=O)c3ccc(C(=O)NC4CCN(Cc5ccc(OC)c(F)c5)C[C@H]4F)cn3)CC2)cc1 (stereo partly drawn) [Compound 7-44, N-((3,4-trans)-3-fluoro-1-(3-fluoro-4-methoxybenzyl)piperidin-4-yl)-6-(4-(4-methoxybenzoyl)piperidine-1-carbonyl)nicotinamide]",< 1000
10,"COc1ccc(C(=O)C2CCN(C(=O)c3ccc(C(=O)NC4CCN(Cc5ccc(F)c(C(F)(F)F)c5)C[C@H]4F)cn3)CC2)cc1 (stereo partly drawn) [Compound 7-45, N-((3,4-trans)-3-fluoro-1-(4-fluoro-3-(trifluoromethyl)benzyl)piperidin-4-yl)-6-(4-(4-methoxybenzoyl)piperidine-1-carbonyl)nicotinamide]",< 1000
11,"CC(=O)c1ccc(Oc2ccc(NC(=O)c3ccc(C(=O)N4CCC(Oc5ccc6c(c5)ncn6C)CC4)nc3)cn2)cc1 [Compound 7-46, N-(6-(4-acetylphenoxy)pyridin-3-yl)-6-(4-(1-methyl-1H-benzo[d]imidazol-5-yloxy)piperidine-1-carbonyl)nicotinamide]",1000 to 10000
12,"Cc1cc(OC2CCN(C(=O)c3ccc(C(=O)NC4CCN(Cc5ccc(OC(F)(F)F)cc5)C[C@H]4F)cn3)CC2)ccc1S(C)(=O)=O (stereo partly drawn) [Compound 7-47, N-((3,4-trans)-3-fluoro-1-(4-(trifluoromethoxy)benzyl)piperidin-4-yl)-6-(4-(3-methyl-4-(methylsulfonyl)phenoxy)piperidine-1-carbonyl) nicotinamide]",< 1000
13,"O=C(NC1CCN(Cc2ccc(OC(F)(F)F)cc2)C[C@H]1F)c1ccc(C(=O)N2CCC(Oc3ccc(S(=O)(=O)C4CC4)cc3)CC2)nc1 (stereo partly drawn) [Compound 7-48, 6-(4-(4-(cyclopropylsulfonyl)phenoxy)piperidine-1-carbonyl)-N-((3,4- trans)-3-fluoro-1-(4-(trifluoromethoxy)benzyl)piperidin-4-yl)nicotinamide]",1000 to 10000
14,"CS(=O)(=O)c1ccc(OC2CCN(C(=O)c3ccc(C(=O)NC4CCN(Cc5ccc(OC(F)(F)F)cc5)C[C@H]4F)cn3)CC2)cc1 (stereo partly drawn) [Compound 7-49, N-((3,4-trans)-3-fluoro-1-(4-(trifluoromethoxy)benzyl)piperidin-4-yl)-6-(4-(4-(methylsulfonyl)phenoxy)piperidine-1-carbonyl) nicotmamide]",1000 to 10000
15,"Cc1nc2cc(OC3CCN(C(=O)c4ccc(C(=O)NC5CCN(Cc6ccc(OC(F)(F)F)cc6)C[C@H]5F)cn4)CC3)ccc2s1 (stereo partly drawn) [Compound 7-51, N-((3,4-trans)-3-fluoro-1-(4-(trifluoromethoxy)benzyl)piperidin-4-yl)-6-(4-(2-methylbenzo[d]thiazol-5-yloxy)piperidine-1-carbonyl)nicotinamide]",< 1000
16,"CC(=O)c1ccc(OC2CCN(C(=O)c3ccc(C(=O)NC4CCN(Cc5ccc(OC(F)(F)F)cc5)C[C@H]4F)cn3)CC2)cc1 (stereo partly drawn) [Compound 7-52, 6-(4-(4-acetylphenoxy)piperidine-1-carbonyl)-N-((3,4-trans)-3-fluoro-1-(4-(trifluoromethoxy)benzyl)piperidin-4-yl)nicotinamide]",< 1000
17,"O=C(NC1CCN(Cc2ccc(OC(F)(F)F)cc2)C[C@H]1F)c1ccc(C(=O)N2CCC(C(=O)c3ccc(N4CCOCC4)cc3)CC2)nc1 (stereo partly drawn) [Compound 7-53, N-((3,4-trans)-3-fluoro-1-(4-(trifluoromethoxy)benzyl)piperidin-4-yl)-6-(4-(4-morpholinobenzoyl)piperidine-1-carbonyl)nicotinamide]",< 1000
18,"COc1ccc(C(=O)C2CCN(C(=O)c3ccc(C(=O)NC4CCN(Cc5ccc(OC)c(C#N)c5)C[C@H]4F)cn3)CC2)cc1 (stereo partly drawn) [Compound 7-55, N-((3,4-trans)-1-(3-cyano-4-methoxybenzyl)-3-fluoropiperidin-4-yl)-6-(4-(4-methoxybenzoyl)piperidine-1-carbonyl)nicotinamide]",1000 to 10000
19,"COc1ccc(C(=O)C2CCN(C(=O)c3ccc(C(=O)NC4CCN(Cc5ccc(C#N)cc5C)C[C@H]4F)cn3)CC2)cc1 (stereo partly drawn) [Compound 7-56, N-((3,4-trans)-1-(4-cyano-2-methylbenzyl)-3-fluoropiperidin-4-yl)-6-(4-(4-methoxybenzoyl)piperidine-1-carbonyl)nicotinamide]",1000 to 10000
20,"O=C(NC1CCN(Cc2ccc(OC(F)(F)F)cc2)C[C@H]1F)c1ccc(C(=O)N2CCC(C(=O)c3ccc(N4CCCC4)cc3)CC2)nc1 (stereo partly drawn) [Compound 7-57, N-((3,4-trans)-3-fluoro-1-(4-(trifluoromethoxy)benzyl)piperidin-4-yl)-6-(4-(4-(pyrrolidin-1-yl)benzoyl)piperidine-1-carbonyl) nicotinamide]",< 1000
21,"COc1ccc(C(=O)C2CCN(C(=O)c3ccc(C(=O)NC4CCN(Cc5ccc(C)c(C#N)c5)C[C@H]4F)cn3)CC2)cc1 (stereo partly drawn) [Compound 7-58, N-((3,4-trans)-1-(3-cyano-4-methylbenzyl)-3-fluoropiperidin-4-yl)-6-(4-(4-methoxybenzoyl)piperidine-1-carbonyl)nicotinamide]",< 1000
22,"COc1ccc(C(=O)C2CCN(C(=O)c3ccc(C(=O)NC4CCN(Cc5ccc(C#N)c(C)c5)C[C@H]4F)cn3)CC2)cc1 (stereo partly drawn) [Compound 7-59, N-((3,4-trans)-1-(4-cyano-3-methylbenzyl)-3-fluoropiperidin-4-yl)-6-(4-(4-methoxybenzoyl)piperidine-1-carbonyl)nicotinamide]",< 1000
23,"CS(=O)(=O)c1ccc(C(=O)C2CCN(C(=O)c3ccc(C(=O)NC4CCN(Cc5ccc(OC(F)(F)F)cc5)C[C@H]4F)cn3)CC2)cc1 (stereo partly drawn) [Compound 7-61, N-((3,4-trans)-3-fluoro-1-(4-(trifluoromethoxy)benzyl)piperidin-4-yl)-6-(4-(4-(methylsulfonyl)benzoyl)piperidine-1-carbonyl) nicotinamide]",1000 to 10000
24,"N#Cc1ccc(OC2CCN(C(=O)c3ccc(C(=O)NC4CCN(Cc5ccc(OC(F)(F)F)cc5)CC4F)cn3)CC2)cc1 (stereo not drawn) [Compound 7-62, 6-(4-(4-cyanophenoxy)piperidine-1-carbonyl)-N-((3,4-trans)-3-fluoro-1-(4-(trifluoromethoxy)benzyl)piperidin-4-yl)nicotinamide]",< 1000
25,"COc1ccc(C(=O)C2CCN(C(=O)c3ccc(C(=O)NC4CCN(Cc5cnn(C)c5)C[C@H]4F)cn3)CC2)cc1 (stereo partly drawn) [Compound 7-63, N-((3,4-trans)-3-fluoro-1-((1-methyl-1H-pyrazol-4-yl)methyl)piperidin-4-yl)-6-(4-(4-methoxybenzoyl)piperidine-1-carbonyl)nicotinamide]",10000 to 20000
26,"Cc1cc(OC2CCN(C(=O)c3ccc(C(=O)NC4CCN(Cc5ccc(OC(F)(F)C(F)F)cc5)CC4)cn3)CC2)ccc1S(C)(=O)=O [Compound 7-64, 6-(4-(3-methyl-4-(methylsulfonyl)phenoxy)piperidine-1-carbonyl)-N-(1-(4-(1,1,2,2-tetrafluoroethoxy)benzyl)piperidin-4-yl)nicotinamide]",1000 to 10000
27,"N#Cc1ccc(CN2CCC(NC(=O)c3ccc(C(=O)N4CCC(Oc5ccc(C#N)cc5)CC4)nc3)[C@@H](F)C2)cc1 (stereo partly drawn) [Compound 7-67, N-((3,4-trans)-l-(4-cyanobenzyl)-3-fluoropiperidin-4-yl)-6-(4-(4-cyanophenoxy)piperidine-1-carbonyl)nicotinamide]",< 1000
28,"N#Cc1ccc(CN2CCC(NC(=O)c3ccc(C(=O)N4CCC(C(=O)c5ccc(-n6cccn6)cc5)CC4)nc3)[C@H](F)C2)cc1 (stereo partly drawn) [Compound 7-68, 6-(4-(4-(lH-pyrazol-1-yl)benzoyl)piperidine-1-carbonyl)-N-((3,4-trans)-1-(4-cyanobenzyl)-3-fluoropiperidin-4-yl)nicotinamide]",< 1000
